# Results taken from ChEMBL document CHEMBL1151674, “Oscillapeptin G, a tyrosinase inhibitor from toxic Oscillatoria agardhii” (J Nat Prod, 1996).
# Target: T1, Tyrosinase (Homo sapiens) (UniProt P14679)
# T1 sequence (whole entry): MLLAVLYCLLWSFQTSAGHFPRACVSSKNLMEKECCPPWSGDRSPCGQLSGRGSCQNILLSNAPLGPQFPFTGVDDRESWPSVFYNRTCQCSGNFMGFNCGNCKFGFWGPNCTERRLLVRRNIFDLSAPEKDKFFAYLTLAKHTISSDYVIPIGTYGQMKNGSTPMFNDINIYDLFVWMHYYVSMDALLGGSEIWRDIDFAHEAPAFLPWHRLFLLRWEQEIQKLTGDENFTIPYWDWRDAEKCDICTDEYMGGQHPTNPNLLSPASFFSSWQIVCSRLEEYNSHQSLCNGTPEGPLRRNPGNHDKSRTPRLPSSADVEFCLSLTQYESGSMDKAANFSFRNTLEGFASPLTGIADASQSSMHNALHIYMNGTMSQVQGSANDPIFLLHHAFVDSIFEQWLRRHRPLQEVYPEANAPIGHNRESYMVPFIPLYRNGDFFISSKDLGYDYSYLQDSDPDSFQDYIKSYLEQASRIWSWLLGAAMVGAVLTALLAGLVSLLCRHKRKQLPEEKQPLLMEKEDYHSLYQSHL
# Test: Inhibition of tyrosinase-mediated formation of melanin from tyrosine at 100 uM relative to control
compound,measurement,value
CC[C@H](C)[C@@H]1NC(=O)[C@H](Cc2ccc(O)cc2)N(C)C(=O)[C@H]([C@H](C)O)N2C(=O)[C@H](CC[C@H]2O)NC(=O)[C@H](CC(C)C)NC(=O)[C@@H](NC(=O)[C@H](CCC(N)=O)NC(=O)[C@H](CCc2ccc(O)cc2)NC(=O)[C@H](O)CO)[C@@H](C)OC1=O,inhibition,55%
